Reference: patent US20230144436A1, “MUSCLE TARGETING COMPLEXES AND USES THEREOF FOR TREATING MYOTONIC DYSTROPHY” (Dyne Therapeutics, Inc., priority 2020, published 2023)
pEC50: −log10 of the molar value.

What was measured:
DMPK [1] = test: DMPK knockdown by transfected antisense oligonucleotides in DM1 C15 myotubes at 0.5 nM and 50 nM; type: cell-based; conditions: 72 hours; for Normalized DMPK Remaining: relative to vehicle control = 1.00
How it was run: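 DMPK remaining was measured by qPCR 72 h post-transfection, normalized to lipofectamine-only vehicle wells (=1.00). Oligonucleotides were delivered at 0.5 and 50 nM final to DM1 C15 myoblasts differentiated seven days into myotubes, in triplicate.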

DMPK [2] = test: Dose-responsive DMPK reduction in DM1 C15 myotubes (EC-50); type: cell-based; conditions: DM1 C15 differentiated myotubes, 72 hours; for pEC50: transfection with Lipofectamine MessengerMax, 0.046-100 nM; for Percent DMPK reduction at 100 nM: transfection
Procedure: Eighteen oligonucleotides from Example 7 were selected to be evaluated for their ability to reduce DMPK expression in a dose-responsive manner. DM1 C15 myoblasts were prepared as in Example 7 to yield differentiated myotubes in 96-well microplates. After seven days of differentiation, cells were transfected with individual oligonucleotides using Lipofectamine MessengerMax. Each oligonucleotide was tested in triplicate at concentrations of 0.046 nM, 0.137 nM, 0.412 nM, 1.235 nM, 3.704 nM, 11.11 nM, 33.33 nM, and 100 nM by 3-fold serial dilutions using 0.3 μL of Lipofectamine MessengerMax per well.
Following addition of oligonucleotide, cells were incubated for 72 hours prior to harvesting for total RNA. cDNA was synthesized from the total RNA extracts and qPCR was performed to determine expression levels of DMPK using a commercially available Taqman probeset in technical quadruplicate. All qPCR data were analyzed using a traditional ΔΔCT method and were normalized to a plate-based negative control that comprised of cells treated with vehicle control (0.3 μL/well Lipofectamine MessengerMax without any oligonucleotide). Data for each oligonucleotide to was fit to sigmoidal curve in order to determine an effective concentration of each oligonucleotide that provided a half-maximal response (EC-50).

[3] = 0.5 nM oligonucleotide, qPCR, relative to vehicle control
[4] = 50 nM oligonucleotide, qPCR, relative to vehicle control

| Substance | Percent DMPK Reduction (DMPK [1]; [3]) [%] | Normalized DMPK Remaining (DMPK [1]; 0.5 nM oligonucleotide, qPCR) | Percent DMPK Reduction (DMPK [1]; [4]) [%] | Normalized DMPK Remaining (DMPK [1]; 50 nM oligonucleotide, qPCR) | pEC50 (DMPK [2]) | Percent DMPK reduction at 100 nM (DMPK [2]) [%] | Percent DMPK Reduction (DMPK [1]; 0.5 nM oligonucleotide) [%] | Normalized DMPK Remaining (DMPK [1]; 0.5 nM oligonucleotide) | Percent DMPK Reduction (DMPK [1]; 50 nM oligonucleotide) [%] | Normalized DMPK Remaining (DMPK [1]; 50 nM oligonucleotide) |
| --- | --- | --- | --- | --- | --- | --- | --- | --- | --- | --- |
| 257 (CAUGGCAUACACCUGGCCCG; chemistry not given here) [compound 257] | 31.63 | 0.68 | 74.03 | 0.26 | 9.38 | 75.28 |  |  |  |  |
| 260 (CGAAUGUCCGACAGUGUCUC; chemistry not given here) [compound 260] | 40.21 | 0.60 | 64.42 | 0.36 | 9.74 | 95.93 |  |  |  |  |
| 270 (GGGCCUGGGACCUCACUGUC; chemistry not given here) [compound 270] | 37.19 | 0.63 | 76.81 | 0.23 | 10.15 | 90.58 |  |  |  |  |
| 451 (CAGGAUGUUGUCGGGUUUGA; chemistry not given here) [compound 451] |  |  |  |  |  |  | 17.17 | 0.83 | 79.31 | 0.21 |
| 452 (CGGCCUCAGCCUCUGCCGCA; chemistry not given here) [compound 452] |  |  |  |  |  |  | 6.71 | 0.93 | 60.06 | 0.40 |
| 453 (CAGCAGGAUGUUGUCGGGUU; chemistry not given here) [compound 453] |  |  |  |  |  |  | 34.18 | 0.66 | 84.54 | 0.15 |
| 454 (GCAGAGAGAGGUGCUCCUUG; chemistry not given here) [compound 454] |  |  |  |  |  |  | 17.29 | 0.83 | 85.95 | 0.14 |
| 455 (UCCAGUUCCAUGGGUGUGGG; chemistry not given here) [compound 455] |  |  |  |  |  |  | 15.66 | 0.84 | 78.48 | 0.22 |
| 456 (CCUCAGCCUGGCCGAAAGAA; chemistry not given here) [compound 456] |  |  |  |  |  |  | 16.83 | 0.83 | 63.99 | 0.36 |
| 457 (GGGCCUUUUAUUCGCGAGGG; chemistry not given here) [compound 457] |  |  |  |  |  |  | 5.11 | 0.95 | 50.65 | 0.49 |
| 458 (GUCGGCCAGGCGGAUGUGGC; chemistry not given here) [compound 458] |  |  |  |  |  |  | 15.35 | 0.85 | 74.59 | 0.25 |
| 459 (GCUUGCUGCCUUCCCAGGCC; chemistry not given here) [compound 459] |  |  |  |  |  |  | 1.14 | 0.99 | 81.01 | 0.19 |
| 460 (GGUCCAGCAGGAUGUUGUCG; chemistry not given here) [compound 460] |  |  |  |  |  |  | 31.78 | 0.68 | 79.93 | 0.20 |
| 461 (CGGAGACCAUCCCAGUCGAG; chemistry not given here) [compound 461] |  |  |  |  |  |  | 14.08 | 0.86 | 79.93 | 0.20 |
| 462 (UCUGCCUCGCGUAGUGACU; chemistry not given here) [compound 462] |  |  |  |  |  |  | 3.53 | 0.96 | 86.86 | 0.13 |
| 463 (AGGUAGUUCUCAUCCUGGAA; chemistry not given here) [compound 463] |  |  |  |  |  |  | 7.36 | 0.93 | 62.62 | 0.37 |
| 464 (UCCUUGUAGUGGACGAUCUU; chemistry not given here) [compound 464] |  |  |  |  |  |  | 12.96 | 0.87 | 84.87 | 0.15 |

| Substance | Percent DMPK Reduction (DMPK [1]; [3]) [%] | Normalized DMPK Remaining (DMPK [1]; 0.5 nM oligonucleotide, qPCR) | Percent DMPK Reduction (DMPK [1]; [4]) [%] | Normalized DMPK Remaining (DMPK [1]; 50 nM oligonucleotide, qPCR) | pEC50 (DMPK [2]) | Percent DMPK reduction at 100 nM (DMPK [2]) [%] | Percent DMPK Reduction (DMPK [1]; 0.5 nM oligonucleotide) [%] | Normalized DMPK Remaining (DMPK [1]; 0.5 nM oligonucleotide) | Percent DMPK Reduction (DMPK [1]; 50 nM oligonucleotide) [%] | Normalized DMPK Remaining (DMPK [1]; 50 nM oligonucleotide) |
| --- | --- | --- | --- | --- | --- | --- | --- | --- | --- | --- |
| 465 (GCAUCCAAAACGUGGAUUGG; chemistry not given here) [compound 465] |  |  |  |  |  |  | 2.54 | 0.97 | 72.69 | 0.27 |
| 466 (GUCCAGCAGGAUGUGUCGG; chemistry not given here) [compound 466] |  |  |  |  |  |  | 30.00 | 0.70 | 82.64 | 0.17 |
| 467 (AGCUCCCGCAGCGUCACCUC; chemistry not given here) [compound 467] |  |  |  |  |  |  | 13.72 | 0.86 | 80.40 | 0.20 |
| 468 (CGAGAGCAGCGCAAGUGAGG; chemistry not given here) [compound 468] |  |  |  |  |  |  | -2.19 | 1.02 | 37.11 | 0.63 |
| 469 (CAGGGAAAGCGCCUCCGAUA; chemistry not given here) [compound 469] |  |  |  |  |  |  | 11.10 | 0.89 | 91.59 | 0.08 |
| 470 (AUUUCAUAGGCGAAUACACC; chemistry not given here) [compound 470] |  |  |  |  |  |  | -4.54 | 1.05 | 44.15 | 0.56 |
| 471 (UCGGCCAGGCGGAUGUGGCC; chemistry not given here) [compound 471] |  |  |  |  |  |  | 26.53 | 0.73 | 83.04 | 0.17 |
| 472 (AAGGGAUGUGUCCGGAAGUC; chemistry not given here) [compound 472] |  |  |  |  |  |  | 10.37 | 0.90 | 73.52 | 0.26 |
| 473 (CUUGUAGUGGACGAUCUUGC; chemistry not given here) [compound 473] |  |  |  |  |  |  | 24.09 | 0.76 | 89.16 | 0.11 |
| 474 (AGUCGGCCAGGCGGAUGUGG; chemistry not given here) [compound 474] |  |  |  |  |  |  | 6.15 | 0.94 | 67.44 | 0.33 |
| 475 (GCCUCAGCCUGGCCGAAAGA; chemistry not given here) [compound 475] |  |  |  |  |  |  | -4.82 | 1.05 | 63.11 | 0.37 |
| 476 (AGCGUCACCUCGGCCUCAGC; chemistry not given here) [compound 476] |  |  |  |  |  |  | 22.10 | 0.78 | 64.70 | 0.35 |
| 477 (CAGCGGCAGAGAGAGGUGCT; chemistry not given here) [compound 477] |  |  |  |  |  |  | 4.49 | 0.96 | 86.00 | 0.14 |
| 478 (CCAGCGGCAGAGAGAGGUGC; chemistry not given here) [compound 478] |  |  |  |  |  |  | 3.23 | 0.97 | 84.55 | 0.15 |
| 479 (UUGUAGUGGACGAUCUUGCC; chemistry not given here) [compound 479] |  |  |  |  |  |  | 17.22 | 0.83 | 81.05 | 0.19 |
| 480 (AGGGAAAGCGCCUCCGAUAG; chemistry not given here) [compound 480] |  |  |  |  |  |  | -1.12 | 1.01 | 75.50 | 0.25 |
| 481 (GGGAAAGCGCCUCCGAUAGG; chemistry not given here) [compound 481] |  |  |  |  |  |  | 10.02 | 0.90 | 76.79 | 0.23 |
